This passage reports Efficacy in % and chromatographic logP results from patent US7799739B2, “Biphenylcarboxamides for controlling micro-organisms” (Bayer CropScience AG, priority 2005, dated 2010).

The test system of data set [1] is Botrytis cinerea. The data set can be described thus: Botrytis test (bean)/protective. The class given is in vivo. The following applies: bean plants, protective spray, application rate 100 ppm, evaluation 2 days after inoculation. How it is done:
(§1) To produce a suitable preparation of active compound, 1 part by weight of active compound is mixed with the stated amounts of solvents and emulsifier, and the concentrate is diluted with water to the desired concentration.
To test for protective activity, young plants are sprayed with the active compound preparation at the stated application rate. After the spray coating has dried on, 2 small pieces of agar colonized by Botrytis cinerea are placed onto each leaf. The inoculated plants are placed in a dark chamber at about 20° C. and 100% relative atmospheric humidity.
The size of the infected areas on the leaves is evaluated 2 days after the inoculation. 0% means an efficacy which corresponds to that of the control, whereas an efficacy of 100% means that no infection is observed.

The nature of data set [2]: logP determination by HPLC on reverse-phase column (C 18), EEC Directive 79/831 Annex V.A8. The format is physicochemical. Conditions: reverse-phase HPLC column (C 18), pH 2.3, HPLC, 0.1% aqueous phosphoric acid/acetonitrile, 43° C. As to the method: The logP values given in the Tables and Preparation Examples above are determined in accordance with EEC Directive 79/831 Annex V.A8 by HPLC (High Performance Liquid Chromatography) on a reverse-phase column (C 18). Temperature: 43° C.
The determination is carried out in the acidic range at pH 2.3 using the mobile phases 0.1% aqueous phosphoric acid and acetonitrile; linear gradient from 10% acetonitrile to 90% acetonitrile.
Calibration is carried out using unbranched alkan-2-ones (having 3 to 16 carbon atoms) with known logP values (determination of the logP values by the retention times using linear interpolation between two successive alkanones).

Data set [3] deals with Puccinia recondita. The data set can be described thus: Puccinia test (wheat)/protective. The following applies: wheat plants, protective spray, application rate 1000 ppm, evaluation 10 days after inoculation. The class given is in vivo. As to the method:
To produce a suitable preparation of active compound, 1 part by weight of active compound is mixed with the stated amounts of solvent and emulsifier, and the concentrate is diluted with water to the desired concentration.
To test for protective activity, young plants are sprayed with the active compound preparation at the stated application rate. After the spray coating has dried on, the plants are sprayed with a conidia suspension of Puccinia recondita. The plants remain in an incubation cabin at 20° C. and 100% relative atmospheric humidity for 48 hours.
The plants are then placed in a greenhouse at a temperature of about 20° C. and a relative atmospheric humidity of 80% to promote the development of rust pustules.
(§2) Evaluation is carried out 10 days after the inoculation. 0% means an efficacy which corresponds to that of the control, whereas an efficacy of 100% means that no infection is observed.

Data set [4] concerns Uromyces appendiculatus. The data set can be described thus: Uromyces test (bean)/protective. The class given is in vivo. The following applies: bean plants, protective spray, application rate 100 ppm, evaluation 10 days after inoculation. As to the method: as §1
To test for protective activity, young plants are sprayed with the active compound preparation at the stated application rate. After the spray coating has dried on, the plants are inoculated with an aqueous spore suspension of the bean rust pathogen Uromyces appendiculatus and then remain in an incubation cabin at about 20° C. and 100% relative atmospheric humidity for 1 day. The plants are then placed in a greenhouse at about 21° C. and a relative atmospheric humidity of about 90%.
as §2

For data set [5], the system named is Venturia inaequalis. The data set can be described thus: Venturia test (apple)/protective. The class given is in vivo. The following applies: apple plants, protective spray, application rate 100 ppm, evaluation 10 days after inoculation. As to the method:
as §1
To test for protective activity, young plants are sprayed with the active compound preparation at the stated application rate. After the spray coating has dried on, the plants are inoculated with an aqueous conidia suspension of the apple scab pathogen Venturia inaequalis and then remain in an incubation cabin at about 20° C. and 100% relative atmospheric humidity for 1 day. The plants are then placed in a greenhouse at about 21° C. and a relative atmospheric humidity of about 90%.
as §2

`COC(=O)c1ccc(-c2cc(F)ccc2NC(=O)c2cn(C)nc2C(F)(F)F)cc1F` [drawing 31] yielded an Efficacy in % in data set [1] of 78%.

Turning to `COC(=O)c1ccc(-c2cc(F)ccc2NC(=O)c2cn(C)nc2C(F)(F)F)cc1F` [No. 1, methyl 3,5′-difluoro-2′-({[1-methyl-3-(trifluoromethyl)-1H-pyrazol-4-yl]carbonyl}amino)biphenyl-4-carboxylate], in data set [2] (compounds of formula (I)), the chromatographic logP was 2.64.

For `COC(=O)c1ccc(-c2cc(F)ccc2NC(=O)c2cn(C)nc2C(F)F)cc1F` [drawing 35], in data set [3], the Efficacy in % is on record as 90%.

In turn, `COC(=O)c1ccc(-c2cc(F)ccc2N)cc1F` [No. 9 (III), methyl 2′-amino-3,5′-difluorobiphenyl-4-carboxylate] came in with a chromatographic logP in data set [2] (starting materials of formula (III)) of 2.73.

On to `COC(=O)c1ccc(-c2cc(F)ccc2NC(=O)c2cn(C)nc2C(F)F)cc1F` [drawing 33], for which the Efficacy in % in data set [4] stood at 78%.

For the molecule `COC(=O)c1ccc(-c2cc(F)ccc2NC(=O)c2cn(C)nc2C(F)(F)F)cc1F` [drawing 34], the Efficacy in % in data set [3] came to 100%.

With `COC(=O)c1ccc(-c2cc(F)ccc2NC(=O)c2cn(C)nc2C(F)(F)F)cc1F` [drawing 32], the Efficacy in % in data set [4] stood at 93%.

As for `COC(=O)c1ccc(-c2cc(F)ccc2NC(=O)c2cn(C)nc2C(F)F)cc1F` [drawing 30], the Efficacy in % in data set [5] is recorded as 71%.

Usually chromatographic logP stands for a lipophilicity value derived from retention on a column.
